14 molecules from ChEMBL document CHEMBL2384945, “Discovery of RG7112: A Small-Molecule MDM2 Inhibitor in Clinical Development” (ACS Med Chem Lett, 2013) can be followed below.

Some results are limits rather than exact numbers.

For orientation: IC50 means the midpoint of a concentration-inhibition curve. Read a high IC50 as a need for much substance. What is called AUC(0-t) is exposure summed from dosing to a finite time, without extrapolation to infinity. As a reminder, the Cmax is the maximum level reached in the sampled fluid or tissue.

In series [1] the test system is SW480. Briefly: cells. As to conditions: Homo sapiens, SW480, 120 h.
Description: Cytotoxicity against human SW480 cells expressing p53 mutant assessed as cell viability after 5 days by MTT assay
The subject of series [2] is MDA-MB-435. The series can be described thus: cells. To be noted: Homo sapiens, MDA-MB-435, 120 h.
Description: Cytotoxicity against human MDA-MB-435 cells expressing p53 mutant assessed as cell viability after 5 days by MTT assay
Series [3] deals with RKO. Briefly: cells. As to conditions: Homo sapiens, 120 h.
Description: Cytotoxicity against human RKO cells expressing wild type p53 assessed as cell viability after 5 days by MTT assay
In series [4] the test system is SJSA-1. Briefly: cells. As to conditions: Homo sapiens, SJSA-1, 120 h.
Description: Cytotoxicity against human SJSA1 cells expressing wild type p53 assessed as cell viability after 5 days by MTT assay
Series [5] concerns HCT-116. Briefly: cells. As to conditions: Homo sapiens, HCT-116, 120 h.
Description: Cytotoxicity against human HCT116 cells expressing wild type p53 assessed as cell viability after 5 days by MTT assay
A short description of series [6]: Apparent half life in mouse at 50 mg/kg, po. The class given is ADME, organism-based. Set-up: dose 50 mg/kg, route oral. As to conditions: in vivo, read-out: t1/2(app) (converted).
The nature of series [7]: AUClast in mouse at 50 mg/kg, po. The series is classed as ADME, organism-based. Further details: time 0 - last, dose 50 mg/kg, route oral. To be noted: plasma.
Series [8] can be described thus: Cmax in mouse at 50 mg/kg, po. Set-up: dose 50 mg/kg, route oral. To be noted: in vivo. The class given is ADME, organism-based.
Series [9] in a line: AUClast in mouse at 100 mg/kg, po. The class given is ADME, organism-based. Set-up: time 0 - last, dose 100 mg/kg, route oral. To be noted: plasma.
Series [10] can be described thus: Cmax in mouse at 100 mg/kg, po. The class given is ADME, organism-based. Further details: dose 100 mg/kg, route oral. To be noted: in vivo.
The nature of series [11]: Apparent half life in mouse at 100 mg/kg, po. The series is classed as ADME, organism-based. Further details: dose 100 mg/kg, route oral. To be noted: in vivo, read-out: t1/2(app) (converted).
Series [12] is described as follows: Antitumor activity against human MHM cells xenografted in po dosed mouse relative to nutlin-3a. The series is classed as functional. For orientation: Xenograft models place foreign cells or tissue in a host animal.
Series [13] deals with SJSA-1. The series can be described thus: animal or person. As to conditions: Mus musculus, SJSA-1, po, read-out: TGI.
Description: Antitumor activity against human SJSA1 cells xenografted in nude mouse assessed as tumor growth inhibition at 50 mg/kg, po relative to control

For the molecule `CCOc1cc(C(C)(C)C)ccc1C1=N[C@@](C)(c2ccc(Cl)cc2)[C@@H](c2ccc(Cl)cc2)N1C(=O)N1CCN(CCCS(C)(=O)=O)CC1`, the IC50 in series [1] is over 30 µM; in series [2], over 30 µM; in [3], over 30 µM; in series [4], 12.4 µM; in [5], 14.4 µM.
In the case of `CCOc1cc(C(C)(C)C)ccc1C1=N[C@@](C)(c2ccc(Cl)cc2)[C@@](C)(c2ccc(Cl)cc2)N1C(=O)N1CCNC(=O)C1`, the half-inhibitory concentration (IC50) was over 30 µM in series [1]; over 30 µM in [2]; 23.7 µM in [3]; 7.6 µM in series [4]; 16.4 µM in series [5].
Regarding `CCOc1cc(C(C)(C)C)ccc1C1=N[C@@](C)(c2ccc(Cl)cc2)[C@@](C)(c2ccc(Cl)cc2)N1C(=O)N1CCNCC1`, the half-maximal inhibitory concentration (IC50) in series [1] stood at 2.7 µM; in series [2], 4.2 µM; in series [3], 0.5 µM; in series [4] it was 0.6 µM; in series [5], 1.2 µM.
Take `CCOc1cc(C(C)(C)C)ccc1C1=N[C@@](C)(c2ccc(Cl)cc2)[C@@](C)(c2ccc(Cl)cc2)N1C(=O)N1CCCCC1`: the 50% inhibitory concentration (IC50) was 23.1 µM in [1]; 24.9 µM in series [2]; 6.8 µM in series [3]; 7.3 µM in [4]; 10.7 µM in series [5].
As to `CCOc1cc(C(C)(C)C)ccc1C1=N[C@@](C)(c2ccc(Cl)cc2)[C@@](C)(c2ccc(Cl)cc2)N1C(=O)N1CCN(C(C)=O)CC1`, the half-life in series [6] is 2.4 h. Besides, the AUC(0-t) in series [7] was determined as 64900 ng·h/mL. This molecule also yielded a maximum concentration (Cmax) in [8] of 19600 ng/mL. Further, the IC50 in series [1] is 17.8 µM; in [2], 14.9 µM; in series [3], 0.5 µM; in series [4], 0.3 µM; in [5], 0.6 µM.
`CCOc1cc(C(C)(C)C)ccc1C1=N[C@@](C)(c2ccc(Cl)cc2)[C@@](C)(c2ccc(Cl)cc2)N1C(=O)N1CCN(CCC(F)(F)F)CC1`: the IC50 in series [1] came out at 5 µM; in [2], 29.3 µM; in series [3] it was 0.4 µM; in series [4], 2.5 µM; in series [5] it was 1.3 µM.
The corresponding values for `CCOc1cc(C(C)(C)C)ccc1C1=N[C@@](C)(c2ccc(Cl)cc2)[C@@](C)(c2ccc(Cl)cc2)N1C(=O)N1CCN(CCO)CC1` are 12.3 µM, 9.6 µM, 0.3 µM, 0.2 µM and 0.8 µM.
On to `CCOc1cc(C(C)(C)C)ccc1C1=N[C@@](C)(c2ccc(Cl)cc2)[C@@](C)(c2ccc(Cl)cc2)N1C(=O)N1CCN(CCNS(C)(=O)=O)CC1`, for which the half-maximal inhibitory concentration (IC50) stood at 9.1 µM in series [1]; 7.3 µM in [2]; 0.3 µM in [3]; 0.2 µM in series [4]; 0.9 µM in series [5].
With `CCOc1cc(C(C)(C)C)ccc1C1=N[C@@](C)(c2ccc(Cl)cc2)[C@@](C)(c2ccc(Cl)cc2)N1C(=O)N1CCN(CCNC(C)=O)CC1`, the half-life in series [6] is 2.3 h. Besides, the AUC(0-t) in series [7] was 136000 ng·h/mL. In addition, the highest level in series [8] (Cmax) was 12000 ng/mL. Also, the IC50 in series [1] came to 11 µM; in series [2], 10.5 µM; in [3], 0.3 µM; in series [4], 0.1 µM; in series [5] it was 0.5 µM.
As to `CCOc1cc(C(C)(C)C)ccc1C1=N[C@@](C)(c2ccc(Cl)cc2)[C@@](C)(c2ccc(Cl)cc2)N1C(=O)N1CCN(CC(=O)N2CCCC2)CC1`, in [6], the half-life is 4.7 h. In series [7], this molecule had an AUC(0-t) of 8300 ng·h/mL. In series [8], this molecule had a Cmax of 2300 ng/mL. Moreover, the IC50 was 14.4 µM in [1]; 9.5 µM in [2]; 0.5 µM in series [3]; 0.3 µM in series [4]; 0.7 µM in series [5].
As for `CCOc1cc(C(C)(C)C)ccc1C1=N[C@@](C)(c2ccc(Cl)cc2)[C@@](C)(c2ccc(Cl)cc2)N1C(=O)N1CCN(CC(=O)N2CCOCC2)CC1`, the IC50 worked out at 14.4 µM in [1]; 17.5 µM in series [2]; 0.6 µM in [3]; 0.2 µM in [4]; 0.6 µM in [5].
With `CCOc1cc(C(C)(C)C)ccc1C1=N[C@@](CC)(c2ccc(Cl)cc2)[C@@](CC)(c2ccc(Cl)cc2)N1C(=O)N1CCN(CCCS(C)(=O)=O)CC1`, the IC50 in series [1] was 24.6 µM; in [2], 28.2 µM; in [3], 12.5 µM; in series [4], over 30 µM; in series [5], 13.7 µM.
In series [9], `COc1ccc(C2=N[C@@H](c3ccc(Cl)cc3)[C@@H](c3ccc(Cl)cc3)N2C(=O)N2CCNC(=O)C2)c(OC(C)C)c1` [NUTLIN-3] had an AUC(0-t) of 65000 ng·h/mL. The same molecule returned a Cmax in series [10] of 12100 ng/mL. Also, the half-life in series [11] was 2.6 h. Besides, the 50% inhibitory concentration (IC50) in series [3], in series [4] and in series [5] was 1.5 µM in each case.
On to `CCOc1cc(C(C)(C)C)ccc1C1=N[C@@](C)(c2ccc(Cl)cc2)[C@@](C)(c2ccc(Cl)cc2)N1C(=O)N1CCN(CCCS(C)(=O)=O)CC1` [RO-5045337], for which the “fold change (FC)” value in series [12] is given as 4. For the same molecule, in series [6], the half-life was 8.8 h. The same molecule gave an AUC(0-t) in series [7] of 251000 ng·h/mL. This molecule also registered a peak concentration (Cmax) in series [8] of 15500 ng/mL. Also, the IC50 in [1] stood at 16.6 µM; in series [2], 9.9 µM; in series [3], 0.4 µM; in series [4], 0.3 µM; in series [5], 0.5 µM. In addition, in series [13], the inhibition in vivo at 50 mg/kg amounted to 74%.
